Where a name gives a salt, the structure may show the parent alone.
test system: 45Ca2+ uptake; assay: 45Ca2+ uptake inhibition experiments (veratrine-stimulated, rat cerebral cortex crude synaptosome fraction); type: biochemical; conditions: stimulated by 30 μM veratrine, rat cerebral cortex synaptosomes
Experimental: ^45 Ca^2+ uptake inhibition experiments
Rat cerebral cortex was homogenized with a 10-fold volume of 0.32M sucrose solution to yield a crude synaptosome fraction (100×g for 10 minutes, 12,000×g for 20 minutes). This fraction was homogenized in Tris buffer [neutralized with 132 mM sodium chloride, 5 mM potassium chloride, 1.3 mM magnesium chloride, 1.2 mM sodium dihydrogen phosphate, 1.2 mM calcium chloride, 10 mM glucose and 20 mM Tris base, saturated with a mixed gas (95% oxygen and 5% carbon dioxide)]. To 900 μl of this suspension, a DMSO solution (10 μl ) of the test drug was added, followed by 10 minutes of incubation at 37° C. 100 μl (final concentration 30μM) of a veratrine solution (containing 0.18 μci ^45 Ca^2+) was then added, followed by 10 minutes of incubation at 37° C. Subsequently, the reaction mixture was quenched by the addition of 4 ml of an ice cooled EGTA solution (120 mM sodium chloride, 5 mM potassium chloride, 5 mM EGTA, pH 7.5), and subjected to aspiration filtration through a GF/B filter; the filter was washed with two 4 ml portions of a washing solution (132 mM sodium chloride, 5 mM potassium chloride, 1.3 mM magnesium chloride, 1.2 mM calcium chloride, 20 mM Tris base, pH 7.5). The radioactivity on the filter was measured by the liquid scintillation method.
^45 Ca^2+ uptake suppression rates were calculated as follows: [formula]
^45 Ca^2+ uptake stimulated by 30 μM veratrine for 10 minutes in the presence of test drug
B: ^45 Ca^2+ uptake in the absence of veratrine and in the presence of test drug
C: ^45 Ca^2 + uptake stimulated by 30 μM veratrine for 10 minutes in the absence of test drug
D: ^45 Ca^2 + uptake in the absence of veratrine and test drug

Going from `COc1ccc2c(c1)CCC1(CCCCN1CCN1CCN(c3cccc(C(F)(F)F)c3)CC1)C2.Cl.Cl` (stereo not drawn) [Example 7-6, 1'-[2-(4-(3-Trifluoromethylphenyl)piperazine-1-yl)ethyl]-3,4-dihydro-6-methoxyspiro[naphthalene-2(1H),2'-piperidine] dihydrochloride] to `COc1cccc(N2CCN(CCN3CCCCC34CCc3cc(OC)ccc3C4)CC2)c1.Cl.Cl` (stereo not drawn) [Example 7-1, 3,4-Dihydro-6-methoxy-1'-[2-(4-(3-methoxyphenyl)piperazine-1-yl)ethyl]spiro[naphthalene-2(1H),2'-piperidine] dihydrochloride], the “45Ca Uptake Inhibitory Activity (% inhibition at 10 μM)” value falls from 106% to 90%.

First: COc1ccc2c(c1)CCC1(CCCCN1CCN1CCN(c3ccccc3Cl)CC1)C2.Cl.Cl (stereo not drawn) [Example 7-3, 1'-[2-(4-(2-Chlorophenyl)piperazine-1-yl)ethyl]-3,4-dihydro-6-methoxyspiro[naphthalene-2(1H),2'-piperidine] dihydrochloride]
Second: COc1ccc2c(c1)CCC1(CCCCN1CCN1CCN(c3ccc(F)cc3)CC1)C2 (stereo not drawn) [Example 7-5, 1'-[2-(4-(4-Fluorophenyl)piperazine-1-yl)ethyl]-3,4-dihydro-6-methoxyspiro[naphthalene-2(1H),2'-piperidine]dihydrochloride]
The “45Ca Uptake Inhibitory Activity (% inhibition at 10 μM)” value of the first is higher: 95% for the first, 87% for the second.

Going from `COc1ccc2c(c1)CCC1(CCCCN1CCOc1ccccc1)C2` (stereo not drawn) [Example 5-10, 3,4-Dihydro-6-methoxy-1'-(2-phenoxyethyl)spiro[naphthalene-(1H),2'-piperidine] hydrochloride] to `COc1ccc2c(c1)CCC1(CCCCN1CCCc1ccccc1)C2` (stereo not drawn) [Example 5-9, 3,4-Dihydro-6-methoxy-1'-(3-phenylpropyl)spiro[naphthalene-(1H),2'-piperidine] hydrochloride], the “45Ca Uptake Inhibitory Activity (% inhibition at 10 μM)” value rises from 88% to 92%.

First: COc1ccc2c(c1)CCC1(CCCCN1CCN1CCC(c3ccccc3)CC1)C2.Cl.Cl (stereo not drawn) [Example 7-9, 3,4-Dihydro-6-methoxy-1'-[2-(4-phenylpiperidine-1-yl)ethyl]spiro[naphthalene-2(1H),2'-piperidine] dihydrochloride]
Second: COc1ccc2c(c1)CCC1(CCCCN1CCCC1CCN(Cc3ccccc3)CC1)C2.Cl.Cl (stereo not drawn) [Example 5-14, 3,4-Dihydro-6-methoxy-1'-[3-(1-phenylmethylpiperidin-4yl)propyl]spiro[naphthalene-2(1H),2'-piperidine] dihydrochloride]
The “45Ca Uptake Inhibitory Activity (% inhibition at 10 μM)” value of the first is higher: 109% for the first, 74% for the second.

target: T1, Monoamine oxidase B (MAO-B) (Rattus norvegicus, UniProt P19643); assay: Monoamine oxidase B (MAO-B) inhibitory activity; type: biochemical; conditions: not given
T1 construct: Whole rat brains were homogenized in a 10-fold volume of ice cooled 0.32 mM sucrose solution; from tissue; host or cells: whole rat brain homogenate
T1 sequence (P19643 1-520): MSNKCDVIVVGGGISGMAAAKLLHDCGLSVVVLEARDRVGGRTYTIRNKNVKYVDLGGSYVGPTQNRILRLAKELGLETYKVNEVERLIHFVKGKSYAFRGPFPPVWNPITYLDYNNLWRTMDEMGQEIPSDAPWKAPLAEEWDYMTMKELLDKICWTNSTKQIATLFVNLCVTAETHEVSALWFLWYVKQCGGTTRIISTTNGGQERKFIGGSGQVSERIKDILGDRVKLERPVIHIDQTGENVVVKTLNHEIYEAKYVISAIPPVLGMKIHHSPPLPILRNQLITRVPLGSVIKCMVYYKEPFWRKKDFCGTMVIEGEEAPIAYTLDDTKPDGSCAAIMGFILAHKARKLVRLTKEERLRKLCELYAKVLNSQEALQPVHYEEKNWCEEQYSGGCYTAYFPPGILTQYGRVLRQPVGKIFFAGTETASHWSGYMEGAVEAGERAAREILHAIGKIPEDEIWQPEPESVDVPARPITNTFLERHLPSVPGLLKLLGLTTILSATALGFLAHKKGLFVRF
Experimental: Monoamine oxidase B (MAO-B) inhibitory activity
Whole rat brains were homogenized in a 10-fold volume of ice cooled […] sucrose solution and diluted with a 10-fold volume of 10 mM phosphate buffer (pH 7.4). To 90 μl of this enzyme specimen, 1 μl of the test drug solution was added, followed by 10 minutes of incubation at 37° C. To the mixture, 10 μM of 14C-phenylethylamine was added, followed by 5 minutes of incubation at 37° C. After the reaction was stopped by the addition of 20 μl of 3M hydrochloric acid, 1 ml of water-saturated toluene-ethyl acetate (1:1) was added. The radioactivity of the metabolite migrated in the organic layer was measured by the liquid scintillation method.

`CCCN1CCCCC12CCc1cc(OCc3ccsc3)ccc1C2` (stereo not drawn) [Example 9-45, 3,4-Dihydro-1'-propyl-6-(3-thienylmethoxy)spiro[naphthalene-2(1H),2'-piperidine] hydrochloride] gave an IC50 of 60 nM.

From US5591849A, “Spiro[naphthalene-2(1H),2'-piperidine] and their use” (Takeda Chemical Industries, Ltd., priority 1994, dated 1997)
